Details: Liquid, Transpiration method

NC=O [formamide]
Details | vapor or sublimation pressure [kPa]
303.4 K | 0.0143
308.2 K | 0.0201
313.2 K | 0.0305
318.2 K | 0.0455
323.2 K | 0.0636
328.2 K | 0.0915
333.2 K | 0.1243
338.2 K | 0.1674
343.2 K | 0.2297
348.2 K | 0.3121
353.3 K | 0.4543
358.2 K | 0.5468
363.2 K | 0.7803
368.1 K | 0.9855
373.2 K | 1.271
376 K | 1.476
